Data from patent publication US20110195924A1, “Methods of Inhibiting the Interaction Between S100P and the Receptor for Advanced Glycation End-Products” (priority 2008, published 2011).

How the values were obtained:
MPanc-96 tumors = assay: MPanc-96 orthotopic tumor growth and metastasis in scid mice; format: in vivo; settings: MPanc-96 model; for lung metastasis, mean: control 5.9×10^7; for liver metastasis, mean: control 9.4×10^8; for tumor burden, mean: gemcitabine 125 mg/kg bi-weekly i.p., cromolyn 5 mg/kg daily i.p., end of six weeks, control 1.1×10^10
Procedure: (§1) FIGS. 5A-5F show the effect of cromolyn on MPanc-96 tumor growth and metastasis in vivo. MPanc-96 cells stably expressing the firefly luciferase gene were injected orthotopically into 4-week-old male CB 17 scid mice. […] Mice were divided into four groups of five mice each with an equivalent mean tumor size between groups. […] One group was treated with water (control), one group received gemcitabine bi-weekly (125 mg per kg body weight bi-weekly by intraperitoneal injection), one group was administered cromolyn daily (5 mg per kg body weight daily by intraperitoneal injection), and the final group was given the combination of cromolyn and gemcitabine. All groups were treated for six weeks. Bioluminescent imaging was done weekly to assess tumor growth. […] Means and 95% confidence intervals from two independent experiments are shown (n=20). Two-tailed two-sample (unpaired) Student's t-tests were used to determine P values. The anti-tumorigenic capability of the drug cromolyn was assessed in 4-week-old male CB 17 scid mice (n=20) carrying orthopic tumors of BxPC-3, MPanc96, and Panc-1 cells stably expressing a Lenti-luc reporter. All mouse experiments were reviewed and approved by the Institutional Animal Care and Use Committee of UT MD Anderson Cancer Center. All mice were maintained in a sterile environment. Cages, bedding, food, and water were all autoclaved. All mice were maintained on a daily 12-hour light/12-hour dark cycle, according to the institutional animal welfare guidelines. BxPC-3, MPanc96, and Pane-1 cells carrying the Lenti-luc reporter gene were grown to 80% confluence, harvested by incubation with trypsin-EDTA, washed twice in PBS, and resuspended to a final concentration of 4.0×10^6 cells/mL. Each mouse (n=20 mice per cell line) was injected (into the pancreas) with cell suspensions (50 μL). Bioluminescent imaging to determine tumor volume was performed 1 week after injection because the tumors became established within this amount of time. This initial tumor volume was used to divide the mice into four groups of five mice each, such that the mean tumor size was equal between groups (FIGS. 4A, 5A, and 6A). To allow enough time to observe differences among treatment groups, the mice were followed for the next 5 weeks. One group of mice was then treated biweekly with a sub-maximal concentration of gemcitabine (125 mg per kg body weight by i.p. injection). A second group was treated with a daily injection of cromolyn (5 mg per kg body weight by i.p. injection). A third group was treated with both bi-weekly gemcitabine and daily cromolyn. The control group was treated daily with vehicle. Treatments were continued for 5 weeks, and the effects on the tumor burden and metastasis were analyzed by weekly bioluminescence imaging (FIGS. 4B, 5B, and 6B). At the end of the experiment the mice were anesthetized with 1.5% isofluorane/air mixture and killed by cervical dislocation. Bioluminescence imaging was conducted using a cryogenically cooled IVIS 100 imaging system coupled to a data acquisition computer running Living Image software (Xenogen Corp., Alameda, Calif.). Before imaging, mice were placed in an acrylic chamber, anesthetized with 1.5% isofluorane/air mixture, and injected i.p. with 15 mg/mL of luciferin potassium salt in PBS at a dose of 150 mg per kg body weight. A digital grey scale image of each mouse was acquired, followed by acquisition and overlay of a pseudocolor image representing the spatial distribution of detected photons emerging from active luciferase within the mouse. Tumor volume was quantified as the sum of all detected photons within the region of the tumor per second. At the end of experiment, the mice were killed, and tumors were surgically removed and weighed. After the primary tumors were removed, cancer cell dissemination and metastasis was visualized using IVIS imaging, and metastatic colonies were counted. […]

Panc-1 tumors = assay: Panc-1 orthotopic tumor growth and metastasis in scid mice; format: in vivo
Procedure: as §1, with “6A-6F” for “5A-5F”, “Panc-1” for “MPanc-96”

SMILES | liver metastasis, difference versus control (MPanc-96 tumors) | lung metastasis, difference versus control (MPanc-96 tumors) | tumor burden, difference versus control (MPanc-96 tumors) | lung metastasis, mean (MPanc-96 tumors) | liver metastasis, mean (MPanc-96 tumors) | tumor burden, mean (MPanc-96 tumors) | effect on body weight (in words) (MPanc-96 tumors; up to 6 weeks) | liver or lung metastasis (Panc-1 tumors; Panc-1 model) | tumor development (Panc-1 tumors; Panc-1 model (no S100P), cromolyn 5 mg/kg daily i.p.) | effect on body weight (in words) (Panc-1 tumors; Panc-1 model, up to 6 weeks) | body weight, difference versus control (Panc-1 tumors; Panc-1 model) | body weight at the end of the experiment, mean (Panc-1 tumors; Panc-1 model, control 32.0 g)
O=C(O)c1cc(=O)c2c(OCC(O)COc3cccc4oc(C(=O)O)cc(=O)c34)cccc2o1 [cromolyn, disodium 1,3-bis[(2′-carboxylatochromon-5′-yl)oxy]-2-hydroxypropane] | 7.2×10^8 photons/sec | 5.6×10^7 photons/sec | 6.2×10^9 photons/sec | 3.2×10^6 photons/sec | 2.2×10^8 photons/sec | 4.8×10^9 photons/sec | no effect | neither cromolyn nor gemcitabine nor the combination reduced | did not reduce | no effect |  | 
Nc1ccn([C@@H]2O[C@H](CO)[C@@H](O)C2(F)F)c(=O)n1 [gemcitabine] | 8.1×10^8 photons/sec | 5.4×10^7 photons/sec | 6.9×10^9 photons/sec | 5.0×10^6 photons/sec | 1.2×10^8 photons/sec | 4.1×10^9 photons/sec |  | neither cromolyn nor gemcitabine nor the combination reduced |  |  | 4.8 g | 27.2 g
